“And” between values parts separate entries of the source, which are not always exact repeats. Equal entries are not always repeated. Toxic doses and inconclusive results are not listed. No stated cut-off is given here; in the data, active means T/C of 150% or more; inactive means T/C below 125%.
Test system: L1210 leukemia ip in BDF1 mice, survival T/C
Test: NCI In Vivo Anticancer Drug Screen. Data for tumor model L1210 Leukemia (intraperitoneal) in B6D2F1 (BDF1) mice
Conditions: endpoint: mean survival time, higher = longer survival
In short: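 Transplanted-tumor mice were given test agent; controls received vehicle only. Survival readings from the two groups were divided (treated over control).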

[1] = dose: 100.0 mg/kg/injection, schedule: Q01DX001 (ip), vehicle: saline
[2] = dose: 100.0 mg/kg/injection, schedule: Q01DX009 (ip), vehicle: saline
[3] = dose: 100.0 mg/kg/injection, schedule: Q04DX003 (ip), vehicle: saline
[4] = dose: 200.0 mg/kg/injection, schedule: Q01DX001 (ip), vehicle: saline
[5] = dose: 200.0 mg/kg/injection, schedule: Q04DX003 (ip), vehicle: saline
[6] = dose: 400.0 mg/kg/injection, schedule: Q01DX001 (ip), vehicle: saline
[7] = dose: 100.0 mg/kg/injection, schedule: Q04DX003 (ip), vehicle: Klucel (hydroxypropylcellulose) (HPC)
[8] = dose: 200.0 mg/kg/injection, schedule: Q04DX003 (ip), vehicle: Klucel (hydroxypropylcellulose) (HPC)
[9] = dose: 25.0 mg/kg/injection, schedule: Q01DX009 (ip), vehicle: saline
[10] = dose: 50.0 mg/kg/injection, schedule: Q01DX009 (ip), vehicle: saline
[11] = dose: 50.0 mg/kg/injection, schedule: Q04DX003 (ip), vehicle: saline
[12] = dose: 400.0 mg/kg/injection, schedule: Q04DX003 (ip), vehicle: Klucel (hydroxypropylcellulose) (HPC)
[13] = dose: 100.0 mg/kg/injection, schedule: Q01DX001 (ip), vehicle: saline with Tween-80
[14] = dose: 200.0 mg/kg/injection, schedule: Q01DX001 (ip), vehicle: saline with Tween-80
[15] = dose: 400.0 mg/kg/injection, schedule: Q01DX001 (ip), vehicle: saline with Tween-80
[16] = dose: 25.0 mg/kg/injection, schedule: Q01DX001 (ip), vehicle: saline with Tween-80
[17] = dose: 50.0 mg/kg/injection, schedule: Q01DX001 (ip), vehicle: saline with Tween-80
[18] = dose: 100.0 mg/kg/injection, schedule: Q01DX001 (ip), vehicle: carboxymethylcellulose (CMC)
[19] = dose: 200.0 mg/kg/injection, schedule: Q01DX001 (ip), vehicle: carboxymethylcellulose (CMC)
[20] = dose: 100.0 mg/kg/injection, schedule: Q04DX003 (ip), vehicle: other
[21] = dose: 200.0 mg/kg/injection, schedule: Q04DX003 (ip), vehicle: other
[22] = dose: 400.0 mg/kg/injection, schedule: Q04DX003 (ip), vehicle: other

Measured: T/C

COC(O)C(Cl)(Cl)Cl (stereo not drawn)
inactive: [1] 101 % of control | [2] 97 % of control | [3] 96 % of control | [4] 97 % of control | dose: 200.0 mg/kg/injection, schedule: Q01DX009 (ip), vehicle: saline 103 % of control | [5] 100 % of control | [6] 109 % of control | dose: 400.0 mg/kg/injection, schedule: Q01DX009 (ip), vehicle: saline 103 % of control | dose: 400.0 mg/kg/injection, schedule: Q04DX003 (ip), vehicle: saline 104 % of control

O=C(O)C1=C(C(=O)O)C2C=CC1N2Cc1ccccc1
inactive: dose: 100.0 mg/kg/injection, schedule: Q01DX001 (ip), vehicle: other 96 % of control | dose: 200.0 mg/kg/injection, schedule: Q01DX001 (ip), vehicle: other 102 % of control

Cc1coc(NS(=O)(=O)c2ccc(N=Nc3c(N)[nH]c(=S)[nH]c3=O)cc2)c1C
inactive: [1] 113 % of control | [4] 107 % of control | [6] 101 % of control

C[CH2][Pb]([CH2]C)([CH2]C)[O]C(=O)c1ccc(N)cc1
inactive: dose: 0.75 mg/kg/injection, schedule: Q01DX009 (ip), vehicle: Klucel (hydroxypropylcellulose) (HPC) 91 % of control | dose: 1.5 mg/kg/injection, schedule: Q01DX009 (ip), vehicle: Klucel (hydroxypropylcellulose) (HPC) 100 % of control | dose: 3.0 mg/kg/injection, schedule: Q01DX009 (ip), vehicle: Klucel (hydroxypropylcellulose) (HPC) 100 % of control | dose: 6.0 mg/kg/injection, schedule: Q01DX009 (ip), vehicle: Klucel (hydroxypropylcellulose) (HPC) 102 % of control | dose: 12.0 mg/kg/injection, schedule: Q01DX009 (ip), vehicle: Klucel (hydroxypropylcellulose) (HPC) 103 % of control | dose: 12.5 mg/kg/injection, schedule: Q04DX002 (ip), vehicle: Klucel (hydroxypropylcellulose) (HPC) 110 % of control | dose: 25.0 mg/kg/injection, schedule: Q04DX002 (ip), vehicle: Klucel (hydroxypropylcellulose) (HPC) 103 % of control

O=C(NCCCOc1ccc([N+](=O)[O-])cc1)OCc1ccccc1
inactive: [7] 109 % of control | [8] 107 % of control

Nc1ccc(C(=O)Nc2ccc(N(CCCl)CCCl)cc2)cc1
inactive: dose: 12.5 mg/kg/injection, schedule: Q01DX009 (ip), vehicle: saline 117 % of control | [9] 98 % of control and 114 % of control | [10] 120 % of control | [11] 115 % of control | [2] 114 % of control | [3] 118 % of control | [5] 97 % of control

COc1ccccc1C(O)(c1ccccc1)c1ccccc1OC
inactive: [7] 92 % of control | [8] 98 % of control | [12] 97 % of control

O=C(OCCn1c(-c2ccccn2)nc2ccccc21)C(O)(c1ccccc1)c1ccccc1
inactive: dose: 100.0 mg/kg/injection, schedule: Q01DX001 (ip), vehicle: Klucel (hydroxypropylcellulose) (HPC) 102 % of control | dose: 200.0 mg/kg/injection, schedule: Q01DX001 (ip), vehicle: Klucel (hydroxypropylcellulose) (HPC) 93 % of control

COc1cc(C(=O)O)c(Br)c(OC)c1OC
inactive: [13] 103 % of control | [14] 101 % of control | [15] 114 % of control

CCCCCCCCOC(CN)C(Cl)(Cl)Cl (stereo not drawn)
inactive: dose: 6.25 mg/kg/injection, schedule: Q01DX009 (ip), vehicle: saline with Tween-80 103 % of control | dose: 6.25 mg/kg/injection, schedule: Q04DX003 (ip), vehicle: saline with Tween-80 91 % of control | dose: 12.5 mg/kg/injection, schedule: Q01DX009 (ip), vehicle: saline with Tween-80 100 % of control | dose: 12.5 mg/kg/injection, schedule: Q04DX003 (ip), vehicle: saline with Tween-80 94 % of control | dose: 25.0 mg/kg/injection, schedule: Q01DX009 (ip), vehicle: saline with Tween-80 100 % of control | dose: 25.0 mg/kg/injection, schedule: Q04DX003 (ip), vehicle: saline with Tween-80 94 % of control

COC(=O)C(CC/C(=N\Nc1ccc([N+](=O)[O-])cc1[N+](=O)[O-])c1ccccc1)C(=O)OC
inactive: [16] 95 % of control | [17] 88 % of control | [13] 91 % of control

CC1CCCCN1P(=[Se])(c1ccccc1)N1CCCCC1C (stereo not drawn)
inactive: dose: 25.0 mg/kg/injection, schedule: Q04DX003 (ip), vehicle: Klucel (hydroxypropylcellulose) (HPC) 97 % of control | dose: 50.0 mg/kg/injection, schedule: Q04DX003 (ip), vehicle: Klucel (hydroxypropylcellulose) (HPC) 103 % of control | [7] 100 % of control and 90 % of control

Nc1nc2c(nc(NO)n2C2OC(CO)C(O)C2O)c(=O)[nH]1 (stereo not drawn)
inactive: dose: 50.0 mg/kg/injection, schedule: Q01DX001 (ip), vehicle: carboxymethylcellulose (CMC) 95 % of control | [18] 110 % of control | [19] 101 % of control

Brc1cccc2ccccc12
inactive: dose: 25.0 mg/kg/injection, schedule: Q01DX009 (ip), vehicle: Klucel (hydroxypropylcellulose) (HPC) 89 % of control | dose: 50.0 mg/kg/injection, schedule: Q01DX009 (ip), vehicle: Klucel (hydroxypropylcellulose) (HPC) 86 % of control | dose: 100.0 mg/kg/injection, schedule: Q01DX009 (ip), vehicle: Klucel (hydroxypropylcellulose) (HPC) 99 % of control | dose: 100.0 mg/kg/injection, schedule: Q04DX002 (ip), vehicle: Klucel (hydroxypropylcellulose) (HPC) 112 % of control | dose: 200.0 mg/kg/injection, schedule: Q04DX002 (ip), vehicle: Klucel (hydroxypropylcellulose) (HPC) 105 % of control | dose: 400.0 mg/kg/injection, schedule: Q04DX002 (ip), vehicle: Klucel (hydroxypropylcellulose) (HPC) 119 % of control

CC(=O)Nc1ccc(/C=N/Nc2c([N+](=O)[O-])cc(C(F)(F)F)cc2[N+](=O)[O-])cc1
inactive: dose: 100.0 mg/kg/injection, schedule: Q01DX009 (ip), vehicle: saline with Tween-80 100 % of control | dose: 200.0 mg/kg/injection, schedule: Q01DX009 (ip), vehicle: saline with Tween-80 96 % of control

Clc1ccc(/C=C2\c3ccccc3-c3nc4ccccc4nc32)cc1
inactive: dose: 75.0 mg/kg/injection, schedule: Q04DX003 (ip), vehicle: saline 91 % of control | dose: 150.0 mg/kg/injection, schedule: Q04DX003 (ip), vehicle: saline 88 % of control

COC(=O)CCN(c1ccccc1)S(=O)(=O)c1ccc(C)cc1
inactive: [7] 91 % of control | [8] 94 % of control | [12] 93 % of control

CC(C)=CCC(C#N)(CCN(C)C)c1ccc2ccccc2c1 (stereo not drawn)
inactive: [9] 95 % of control | [10] 97 % of control | [2] 95 % of control

CCCCCCCCCCCCNC(=O)C[n+]1cccc(C(=O)N(CC)CC)c1
inactive: dose: 12.5 mg/kg/injection, schedule: Q04DX003 (ip), vehicle: saline 92 % of control | dose: 25.0 mg/kg/injection, schedule: Q04DX003 (ip), vehicle: saline 97 % of control | [11] 97 % of control

CCOC(=O)C1C2C=CC=CC(=O)C21 (stereo not drawn)
inactive: dose: 100.0 mg/kg/injection, schedule: Q01DX009 (ip), vehicle: other 102 % of control | [20] 95 % of control | dose: 200.0 mg/kg/injection, schedule: Q01DX009 (ip), vehicle: other 95 % of control | [21] 95 % of control | [22] 105 % of control

N/N=C(/C=N/N)C(O)CO (stereo not drawn)
inactive: [16] 95 % of control | [17] 98 % of control | [13] 89 % of control and 92 % of control | [15] 92 % of control

COC(=O)/C=C(/Oc1cccc(C)c1)C(=O)OC
inactive: [20] 101 % of control | [21] 96 % of control | [22] 96 % of control

CNC(=O)CCC(NS(=O)(=O)c1ccc(C)cc1)C(=O)O (stereo not drawn)
inactive: [13] 100 % of control | [14] 95 % of control | [15] 97 % of control

CC(=O)n1c2c(n(C(C)=O)c1=O)CCCC2
inactive: [13] 102 % of control | [14] 98 % of control | [15] 102 % of control

CCN1C(=O)CC(SC2CC(=O)N(CC)C2=O)C1=O (stereo not drawn)
inactive: [18] 100 % of control | [19] 94 % of control | dose: 400.0 mg/kg/injection, schedule: Q01DX001 (ip), vehicle: carboxymethylcellulose (CMC) 94 % of control

From PubChem BioAssay AID248 (DTP/NCI, 2004)
